Common to all, as to conditions: tsA201, read-out: % inhibition @ 30 µM
For assay [1], the target named is T1, ASIC1 (hASIC1; ASIC1a as primary isoform in tsA-201 cells) (Homo sapiens, UniProt P78348).
T1 sequence (P78348 1-528): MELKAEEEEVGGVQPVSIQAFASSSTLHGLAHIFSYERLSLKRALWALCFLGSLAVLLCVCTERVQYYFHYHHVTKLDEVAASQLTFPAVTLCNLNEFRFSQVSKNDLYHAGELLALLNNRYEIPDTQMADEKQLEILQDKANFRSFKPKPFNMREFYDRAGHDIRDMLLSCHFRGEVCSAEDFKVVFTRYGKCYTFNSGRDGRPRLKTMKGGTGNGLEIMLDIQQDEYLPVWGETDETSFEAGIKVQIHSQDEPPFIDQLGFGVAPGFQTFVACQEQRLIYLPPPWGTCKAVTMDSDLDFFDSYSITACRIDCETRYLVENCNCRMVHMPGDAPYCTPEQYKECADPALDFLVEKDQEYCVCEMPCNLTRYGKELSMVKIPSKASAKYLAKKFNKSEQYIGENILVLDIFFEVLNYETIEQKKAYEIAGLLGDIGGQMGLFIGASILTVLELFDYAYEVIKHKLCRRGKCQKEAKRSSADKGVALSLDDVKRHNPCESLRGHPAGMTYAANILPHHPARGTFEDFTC
Put plainly: cell-based.

Assay [2] concerns the target T1, ASIC1 (hASIC1; ASIC1a as primary isoform in tsA-201 cells). In words: automated patch clamp, single concentration. Format: cell-based. (Patch clamp records ionic current or voltage across a cell membrane.)
Assay [3] has the same target. Put plainly: cell-based. This is another data set of the same source.

Consider 17 compounds from doi:10.1101/2022.03.12.484055v1 (biorxiv, 2022).

In general, inhibition refers to how much of the control response was suppressed. In the case of `N=C(N)NC(=O)c1nc(-c2cc3ccccc3o2)c(NCc2ccccc2)nc1N` [compound 65, 65], the inhibition at 30 µM in assay [1] was 39%.
As for `N=C(N)NC(=O)c1nc(-c2ccco2)c(N)nc1N` [compound 14, 14], in assay [2], the inhibition at 30 µM was 75 ± 1%.
Regarding `N=C(N)NC(=O)c1nc(-c2cc3ccccc3o2)c(NC2CCCCCC2)nc1N` [compound 64, 64], the inhibition at 30 µM in assay [1] turned out to be 10%.
As to `CC(C)(C)c1ccc2oc(-c3nc(C(=O)NC(=N)N)c(N)nc3N)cc2c1` [compound 21, 21], the inhibition at 30 µM in assay [2] was found to be 71 ± 2%.
As for `N=C(N)NC(=O)c1nc(-c2cc3ccccc3o2)c(NC2CCCC2)nc1N` [compound 63, 63], the inhibition at 30 µM in assay [1] was found to be 22%.
Take `N=C(N)NC(=O)c1nc(-c2cncnc2)c(N2CCCOCC2)nc1N` [compound 84, 84]: in assay [3], the inhibition at 30 µM worked out at 14%.
As to `N=C(N)NC(=O)c1nc(-c2cc3ccccc3o2)c(N2CCCCC2)nc1N` [compound 60, 60], the inhibition at 30 µM in assay [1] is 54%.
Take `CCN(c1nc(N)c(C(=O)NC(=N)N)nc1-c1cc2ccccc2o1)C(C)C` [compound 62, 62]: the inhibition at 30 µM in assay [1] was 46%.
Still for that read-out and setting: then `N=C(N)NC(=O)c1nc(-c2cc3ccccc3o2)c(NCCc2ccccc2)nc1N` [compound 66, 66], with 31%.
As to `COc1ccc2oc(-c3nc(C(=O)NC(=N)N)c(N)nc3N)cc2c1` [compound 29, 29], the inhibition at 30 µM in assay [2] stood at 82 ± 1%.
Take `N=C(N)NC(=O)c1nc(Cl)c(N2CCCOCC2)nc1N` [compound 83, 83]: the inhibition at 30 µM in assay [3] worked out at 67%.
In the case of `N=C(N)NC(=O)c1nc(-c2cc3cc(F)cc(F)c3o2)c(N)nc1N` [compound 35, 35], the inhibition at 30 µM in assay [2] is 76 ± 3%.
On to `N=C(N)NC(=O)c1nc(-c2cc3ccccc3o2)c(N2CCCOCC2)nc1N` [compound 86, 86], for which the inhibition at 30 µM in assay [3] stood at 26%.
Consider `N=C(N)NC(=O)c1nc(-c2cc3ccccc3o2)c(N2CCCC2)nc1N` [compound 59, 59], for which the inhibition at 30 µM in assay [1] was 59%.
As to `N=C(N)NC(=O)c1nc(-c2ccc(C(F)(F)F)cc2)c(N2CCCC2)nc1N` [compound 78, 78], the inhibition at 30 µM in assay [3] was determined as 78%.
On to `N=C(N)NC(=O)c1nc(-c2ccc(C(F)(F)F)cc2)c(C2CC2)nc1N` [compound 79, 79], for which the inhibition at 30 µM in assay [3] amounted to 65%.
Regarding `N=C(N)NC(=O)c1nc(-c2cc3cc(F)ccc3o2)c(N)nc1N` [compound 23, 23], in assay [2], the inhibition at 30 µM was determined as 82 ± 1%.
